How the values were obtained:
BDC2.5 TCR = experiment: I-Ag7 SABR-II library screen, enrichment score; assay type: cell-based, mouse; conditions: I-Ag7 library
Source text: We then asked whether SABR-IIs could be used to present a library of epitopes for CD4^+ T cell antigen discovery. To that end, we constructed a SABR-II library to present epitopes derived from pancreatic islets in I-Ag7 by curating a list of 4,075 published epitopes from the Immune Epitope Database (iedb.org)[50] and a study by Wan et al.[51] (Supplementary Table 1). Of note, this defined library consisted of unmodified epitopes from endogenous proteins, synthetic mimotopes, deamidated epitopes and hybrid insulin peptides (HIPs) that arise from post-translational fusion and are not genetically encoded in vivo[52],[53]. The epitope library was inserted into the I-Ag7 SABR-II backbone through pooled oligonucleotide synthesis, amplification and ligation-free cloning (Extended Data Fig. 3a). The I-Ag7 SABR-II-library was then expressed in NFAT–GFP Jurkat cells. We confirmed that after sequencing, the library accounted for a mean of 708 reads per epitope (Extended Data Fig. 3b). As a proof of concept, we performed co-incubation assays with Jurkat cells expressing the BDC2.5 TCR and sorted the top 1–2% of GFP^+CD69^+ cells at a rate of ~20 min per replicate with three replicates per TCR. We extracted the genomic DNA from sorted cells, amplified the SABR portion of the integrated proviruses and subjected the amplicons to Illumina sequencing (Extended Data Fig. 3c,d). The 1–2% sort gate represents >50-fold enrichment of cognate epitopes with minimal loss of signal (Extended Data Fig. 3e–h). Sequence reads were aligned to the I-Ag7 SABR-II backbone and the corresponding epitopes were scored based on their read counts. For each TCR under investigation, an enrichment score (ES) was determined for all the epitopes in a library. In each experiment, three replicates of a sort with TCR-expressing Jurkat cells were performed and reads were counted post-sequencing. In addition, three replicates of the unsorted library were also sequenced. A linear regression model was built using the unsorted library counts and used to determine the expected abundance of each epitope in the library. The ES was calculated based on the difference between the measured and the expected abundance of each epitope on a per-TCR basis (Fig. 1e). Based on ES values, two quantitative thresholds were used to determine putative cognate epitopes of a given TCR. A high-confidence zone containing clear outliers with a high ES and a low-confidence zone containing weak outliers with a moderately high ES were determined (Fig. 1e). This two-tiered strategy was used to call putative hits from screens. All the top-scoring epitopes for the BDC2.5 TCR were known BDC2.5 ligands containing the WXRM(D/E) motif (Fig. 1f,g, enriched ligands in red), a well-characterized trait of the BDC2.5 TCR[43],[54]–[56]. Across several independent experiments there was limited variation in ES values for the same TCRs and several epitopes fell into high- or low-confidence zones consistently (Extended Data Fig. 4a). Using a different TCR that was isolated from NOD mice, 4-8Ins[57], which recognized the InsB9:23 epitope ([…]), we observed a similar pattern of ES for cognate epitopes (Extended Data Fig. 4b).
For SABR library screens, 3 × 10^6 NFAT–GFP Jurkat cells expressing the SABR library were labeled with CellTrace Violet (BioLegend) according to the manufacturer’s protocol before incubation with 3 × 10^6 Jurkat cells expressing the TCR of interest. These mixtures were incubated in a six-well plate for 16–20 h. Cells were stained with anti-CD69-APC-Cy7 where indicated (BioLegend) and the top 1–2% of GFP^+CD69^+ cells were sorted for genomic DNA extraction, indexing and sequencing (see below). Multiplexed assays were scaled on a per-TCR basis (for example 3 × 10^6 for each of three TCRs against 9 × 10^6 library cells). […]

Jurkat cells, No TCR = experiment: Single SABR-II co-incubation, background without TCR; assay type: cell-based, human; conditions: No TCR, Ext. Data Fig. 6C, 18-20 hr
Source text: (§1) We performed systematic screening of the cloned TCRs against the I-Ag7 SABR-II library. Several TCRs along with a positive control (such as BDC2.5 or 4-8Ins) were screened individually against the library for each sort (Extended Data Fig. 6a and Supplementary Table 4). High- and low-confidence ES zones for each screened TCR were defined by the ES values of the control TCR’s cognate epitopes. For all putative cognate epitopes, single SABR-IIs were constructed, expressed in NFAT–GFP Jurkat cells and used for co-incubation with the corresponding TCRs. Co-incubation assays that yielded a GFP signal higher than that obtained in assays with no TCR were determined to be positive and the epitopes deemed true cognate ligands (Extended Data Fig. 6b,c). Using this strategy, we obtained epitopes in the high-confidence zone for eight TCRs (Fig. 3a and Extended Data Fig. 6b,d). Among numerous altered peptide ligands (APLs), these TCRs recognized the physiological InsC-ChgA HIP ([…] and analogs, recognized by TCR5, TCR6B, TCR9 and TCR34), InsC-Iapp HIP ([…] and analogs, recognized by TCR4 and TCR15) and InsB9:23 ([…] and analogs recognized by TCR24 and TCR37). These cognate high-confidence hits were validated using single SABR-II co-incubation assays (Fig. 3b and Extended Data Fig. 7a). Further validations using in vitro mouse interleukin-2 (mIL-2) secretion by TCR-expressing 5KC reporter cells[13] or CD25 expression by TCR-expressing splenic CD4^+ T cells upon stimulation with the cognate epitope were performed (Extended Data Fig. 7b,c). Furthermore, low-confidence hits were called for ten TCRs and tested in co-incubation assays.
(§2) For SABR library screens, 3 × 10^6 NFAT–GFP Jurkat cells expressing the SABR library were labeled with CellTrace Violet (BioLegend) according to the manufacturer’s protocol before incubation with 3 × 10^6 Jurkat cells expressing the TCR of interest. These mixtures were incubated in a six-well plate for 16–20 h. Cells were stained with anti-CD69-APC-Cy7 where indicated (BioLegend) and the top 1–2% of GFP^+CD69^+ cells were sorted for genomic DNA extraction, indexing and sequencing (see below). Multiplexed assays were scaled on a per-TCR basis (for example 3 × 10^6 for each of three TCRs against 9 × 10^6 library cells). For single SABR assays, unless otherwise defined, 5 × 10^5 SABR expressing NFAT–GFP Jurkat cells (or 5KC cells) were labeled with CellTrace Violet (BioLegend) according to the manufacturer’s protocol before incubation with 5 × 10^5 TCR-expressing Jurkat cells (or 5KC cells) in a round-bottom 96-well plate for 16–20 h. Cells were stained with anti-CD69-APC-Cy7 when indicated and acquired on the Attune NxT flow cytometer (Thermo Fisher Scientific). All flow analysis was performed using FlowJo (BD). For Daudi cell co-culture, 1 × 10^6 Jurkat cells expressing the TCR of interest were incubated with 1 × 10^6 Daudi cells expressing a SABR of interest for 3 days. On day 3, cells were labeled with anti-RT1B-PE and anti-Fas-APC-Cy7 before being acquired on the Attune NxT flow cytometer.

TCR5 = experiment: Single SABR-II co-incubation, NFAT-GFP Jurkat; assay type: cell-based, mouse; conditions: TCR 5, Ext. Data Fig. 6C, 18-20 hr
Source text: as §1, §2

TCR4 = experiment: Single SABR-II co-incubation, NFAT-GFP Jurkat; assay type: cell-based, mouse; conditions: TCR 4, Ext. Data Fig. 6C, 18-20 hr
Source text: as §1, §2

[1] = EXPT1 of 8 biological experiments

| Sequence | Enrichment score (BDC2.5 TCR; [1]) | Enrichment score (BDC2.5 TCR; EXPT2 of 8) | Enrichment score (BDC2.5 TCR; EXPT3 of 8) | Enrichment score (BDC2.5 TCR; EXPT4 of 8) | Enrichment score (BDC2.5 TCR; EXPT5 of 8) | Enrichment score (BDC2.5 TCR; EXPT6 of 8) | Enrichment score (BDC2.5 TCR; EXPT7 of 8) | Enrichment score (BDC2.5 TCR; EXPT8 of 8) | %GFP+CD69+ cells of SABR-NFAT-GFP-Jurkat cells (Jurkat cells, No TCR; technical replicate 1) | %GFP+CD69+ cells of SABR-NFAT-GFP-Jurkat cells (Jurkat cells, No TCR; technical replicate 2) | %GFP+CD69+ cells of SABR-NFAT-GFP-Jurkat cells (TCR5; technical replicate 1) | %GFP+CD69+ cells of SABR-NFAT-GFP-Jurkat cells (TCR5; technical replicate 2) | %GFP+CD69+ cells of SABR-NFAT-GFP-Jurkat cells (TCR4; technical replicate 1) | %GFP+CD69+ cells of SABR-NFAT-GFP-Jurkat cells (TCR4; technical replicate 2) |
| --- | --- | --- | --- | --- | --- | --- | --- | --- | --- | --- | --- | --- | --- | --- |
| AAVRPLWVRMEAA [top putative hit of BDC2.5 TCR in I-Ag7 library] | 0.000742 | 0.000415 | 0.000612 | 0.000371 | 0.0007 | 0.000851 | 0.000576 | 0.000606 |  |  |  |  |  |  |
| AVRPLWVRME [top putative hit of BDC2.5 TCR in I-Ag7 library] | 0.000751 | 0.000649 | 0.001092 | 0.001062 | 0.001109 | 0.000835 | 0.001173 | 0.001182 |  |  |  |  |  |  |
| AVRPLWVRMEA [top putative hit of BDC2.5 TCR in I-Ag7 library] | 0.000756 | 0.000652 | 0.000955 | 0.000753 | 0.000651 | 0.00121 | 0.001291 | 0.000826 |  |  |  |  |  |  |
| EKAHHAIWARMDAKK |  |  |  |  |  |  |  |  | 0.95% | 0.84% | 38% | 39.6% |  |  |
| EKAHIPIWARMDAKK [top putative hit of BDC2.5 TCR in I-Ag7 library] | 0.001977 | 0.00122 | 0.003326 | 0.002646 | 0.002482 | 0.002979 | 0.003083 | 0.003642 |  |  |  |  |  |  |
| EKAHRPIWARMDAKK [top putative hit of BDC2.5 TCR in I-Ag7 library] | 0.001675 | 0.001085 | 0.002939 | 0.002157 | 0.001924 | 0.002825 | 0.003201 | 0.003092 |  |  |  |  |  |  |
| PGAGDLQTLALNAARDP |  |  |  |  |  |  |  |  | 2.65% | 2.56% |  |  | 20.2% | 20.4% |
| RRALQTLALNAARDP |  |  |  |  |  |  |  |  | 4.17% | 3.8% |  |  | 12.8% | 12.1% |
| RTRPLWVRME [top putative hit of BDC2.5 TCR in I-Ag7 library] | 0.000766 | 0.000703 | 0.00077 | 0.000734 | 0.001024 | 0.001078 | 0.001083 | 0.001303 |  |  |  |  |  |  |
| RVRPLWVRME [top putative hit of BDC2.5 TCR in I-Ag7 library] | 0.001251 | 0.001157 | 0.001581 | 0.000795 | 0.001224 | 0.001618 | 0.001744 | 0.001586 |  |  |  |  |  |  |
| SRLGAWVRME [top putative hit of BDC2.5 TCR in I-Ag7 library] | 0.000522 | 0.000175 | 0.000684 | 0.000306 | 0.000243 | 0.000632 | 0.000765 | 0.000784 |  |  |  |  |  |  |
| SRLGLWARME [top putative hit of BDC2.5 TCR in I-Ag7 library] | 0.00089 | 0.000594 | 0.000983 | 0.000723 | 0.000811 | 0.001313 | 0.001203 | 0.001063 |  |  |  |  |  |  |
| SRLGLWVRMA [top putative hit of BDC2.5 TCR in I-Ag7 library] | 0.000692 | 0.000345 | 0.000603 | 0.000358 | 0.000683 | 0.000858 | 0.0006 | 0.000465 |  |  |  |  |  |  |
| SRLGLWVRME [top putative hit of BDC2.5 TCR in I-Ag7 library] | 0.000716 | 0.000449 | 0.000874 | 0.000616 | 0.000562 | 0.000596 | 0.000875 | 0.000992 |  |  |  |  |  |  |

— article PMC11093748, “De novo identification of CD4^+ T cell epitopes” (Nature Methods, 2024)
